Reference: US8871787B2, “Stable crystalline salt of (R)-3-fluorophenyl-3,4,5-trifluorobenzylcarbamic acid 1-azabicyclo [2.2.2]oct-3-yl ester” (Laboratorios Salvat, S.A., priority 2007, dated 2014)

tested on: patients suffering from Overactive Bladder syndrome; test: Phase II clinical trial: pharmacodynamics in overactive bladder patients (urodynamic assessments, tolerability); conditions: 4 mg o.d., 4 weeks
Experimental: A pharmacodynamic study of tarafenacin tartrate in patients suffering from Overactive Bladder syndrome was performed to obtain first efficacy and tolerability data in this population.
The study was randomised, double-blind, placebo and active-controlled. Patients received tarafenacin tartrate at the dose of 0.1 or 0.2 mg, tolterodine 4 mg or placebo o.d. during 4 weeks, just after a 2 week single-blind wash-out period in which all patients received placebo. Urodynamic assessments were performed at baseline and after 4 weeks administration.
It was planned to screen approximately 100 patients and randomize 77 patients, to obtain outcome data on 63 patients. Patients who entered the study were randomized into the four treatment groups during the double blind treatment period.
After a Screening visit and a 14 day washout single blind period (placebo run in), patients were randomized to one of the four treatment arms by a 2:2:2:1 randomization schedule. In a single blind period, only the patients were blinded. During the treatment period, each patient received tarafenacin tartrate 0.1 mg/tarafenacin tartrate 0.2 mg/tolterodine (ER) 4 mg/placebo. Identical capsules were used to maintain the study blind.
The end of study procedures were performed at the Day 28 visit (End of Treatment [EOT]). A study follow up was conducted at Day 35 either telephonically or the patient was called to the clinic (End of Study [EOS]).
The primary endpoint was the pharmacodynamic endpoints and they were assessed as the mean change from baseline to Day 28 in urodynamic, salivary flow, and accommodation near point pharmacodynamic assessments.

With `Cc1ccc(O)c([C@H](CCN(C(C)C)C(C)C)c2ccccc2)c1` [tolterodine, reference compound] as the compound, how does the “incidence of treatment emergent adverse events” value read?
The value was 36%.

same assay, conditions: human, in vivo

For `Cc1ccc(O)c([C@H](CCN(C(C)C)C(C)C)c2ccccc2)c1` [tolterodine, reference compound], which “increase in infused volume” value is on record?
Its value is 20 mL.

What about the “increase in volume at first desire to void” value of the same compound?
Its value is 33 mL.

What about the “increase in volume at strong desire to void” value of the same compound?
Its value is 42 mL.

tested on: not listed separately; test: Salt screening of compound I with several acids (aspect of the salt); assay type: physicochemical; conditions: free base and acid in hot ethanol, cooled, solvent evaporated
Experimental: To select the most suitable salt of compound I and minimize the undesirable hygroscopic properties of the hydrochloride, several acids were tested. The free base of compound I was dissolved in hot ethanol, and then acid solution in hot ethanol was added. The mixture was then stirred and heated for 30 min. After cooling to room temperature, the solvent was removed by evaporation. […]

Which “Aspect of the salt” value does the source give for `O=C(OC1CN2CCC1CC2)N(Cc1cc(F)c(F)c(F)c1)c1cccc(F)c1.O=S(=O)(O)c1ccccc1` (stereo not shown) [Benzenesulphonic] here?
Its value is “Oil”.

For `O=C(O)CC(O)C(=O)O.O=C(OC1CN2CCC1CC2)N(Cc1cc(F)c(F)c(F)c1)c1cccc(F)c1.O=C(OC1CN2CCC1CC2)N(Cc1cc(F)c(F)c(F)c1)c1cccc(F)c1` [L-Malic (0.5 eq)], which “Aspect of the salt” value is on record?
Its value is “Oil”.

For `O=C(O)C=CC(=O)O.O=C(OC1CN2CCC1CC2)N(Cc1cc(F)c(F)c(F)c1)c1cccc(F)c1` (stereo not shown) [Maleic], which “Aspect of the salt” value is on record?
Its value is “Oil”.

For Fumaric, which “Aspect of the salt” value is on record?
Its value is “White foam”.

Which “Aspect of the salt” value does the source give for Propionic here?
Its value is “Hygroscopic white foam”.

Which “Aspect of the salt” value does the source give for `O=C(O)CC(=O)O` [Malonic] here?
The value was “Oil”.

With `O=C(O)C(O)c1ccccc1.O=C(OC1CN2CCC1CC2)N(Cc1cc(F)c(F)c(F)c1)c1cccc(F)c1` (stereo not shown) [Mandelic] as the compound, how does the “Aspect of the salt” value read?
Its value is “White foam”.

Which “Aspect of the salt” value does the source give for `O=C(O)CC(O)C(=O)O.O=C(OC1CN2CCC1CC2)N(Cc1cc(F)c(F)c(F)c1)c1cccc(F)c1.O=C(OC1CN2CCC1CC2)N(Cc1cc(F)c(F)c(F)c1)c1cccc(F)c1` [D-Malic (0.5 eq)] here?
The value was “Hygroscopic red foam”.

For `O=C(O)C(O)C(O)C(=O)O.O=C(OC1CN2CCC1CC2)N(Cc1cc(F)c(F)c(F)c1)c1cccc(F)c1` (racemic), which “Aspect of the salt” value is on record?
The value was “Adding MTBE precipitated a white solid”.

Which “Aspect of the salt” value does the source give for `CC(O)C(=O)O.O=C(OC1CN2CCC1CC2)N(Cc1cc(F)c(F)c(F)c1)c1cccc(F)c1` (racemic) [DL-Lactic] here?
Its value is “Oil”.

Which “Aspect of the salt” value does the source give for `O=C(O)C(=O)O.O=C(OC1CN2CCC1CC2)N(Cc1cc(F)c(F)c(F)c1)c1cccc(F)c1` (stereo not shown) [Oxalic] here?
The value was “Hygroscopic white foam”.

For `CC1(C)C2CCC1(CS(=O)(=O)O)C(=O)C2.O=C(OC1CN2CCC1CC2)N(Cc1cc(F)c(F)c(F)c1)c1cccc(F)c1` [(S)-10-Camphorsulfonic], which “Aspect of the salt” value is on record?
Its value is “Oil”.

For `CS(=O)(=O)O.O=C(OC1CN2CCC1CC2)N(Cc1cc(F)c(F)c(F)c1)c1cccc(F)c1` (stereo not shown) [Methanesulphonic], which “Aspect of the salt” value is on record?
Its value is “Oil”.

For L-Tartaric, which “Aspect of the salt” value is on record?
Its value is “White foam”.

Which “Aspect of the salt” value does the source give for `O=C(O)C(O)C(O)C(=O)O.O=C(OC1CN2CCC1CC2)N(Cc1cc(F)c(F)c(F)c1)c1cccc(F)c1.O=C(OC1CN2CCC1CC2)N(Cc1cc(F)c(F)c(F)c1)c1cccc(F)c1` [L-Tartaric (0.5 eq)] here?
The value was “White foam”.

For `O=C(O)C(O)c1ccccc1.O=C(OC1CN2CCC1CC2)N(Cc1cc(F)c(F)c(F)c1)c1cccc(F)c1` [(S)-Mandelic], which “Aspect of the salt” value is on record?
Its value is “Oil”.

Which “Aspect of the salt” value does the source give for `O=C(O)CC(O)C(=O)O.O=C(OC1CN2CCC1CC2)N(Cc1cc(F)c(F)c(F)c1)c1cccc(F)c1` [D-Malic] here?
Its value is “Hygroscopic red foam”.

With `O=C(O)C(O)C(O)C(=O)O.O=C(OC1CN2CCC1CC2)N(Cc1cc(F)c(F)c(F)c1)c1cccc(F)c1.O=C(OC1CN2CCC1CC2)N(Cc1cc(F)c(F)c(F)c1)c1cccc(F)c1` [D-Tartaric (0.5 eq)] as the compound, how does the “Aspect of the salt” value read?
Its value is “White solid crystal precipitated in EtOH”.

With `O=C(O)C=CC(=O)O.O=C(OC1CN2CCC1CC2)N(Cc1cc(F)c(F)c(F)c1)c1cccc(F)c1.O=C(OC1CN2CCC1CC2)N(Cc1cc(F)c(F)c(F)c1)c1cccc(F)c1` (stereo not shown) [Fumaric (0.5 eq)] as the compound, how does the “Aspect of the salt” value read?
The value was “White foam”.

Which “Aspect of the salt” value does the source give for `CC1(C)C2CCC1(CS(=O)(=O)O)C(=O)C2.O=C(OC1CN2CCC1CC2)N(Cc1cc(F)c(F)c(F)c1)c1cccc(F)c1` (racemic) [(RS)-10-Camphorsulfonic] here?
The value was “Hygroscopic pink foam”.

Which “Aspect of the salt” value does the source give for `O=C(O)CCC(=O)O` [Succinic] here?
Its value is “Hygroscopic white foam”.

With `O=C(O)CC(O)C(=O)O.O=C(OC1CN2CCC1CC2)N(Cc1cc(F)c(F)c(F)c1)c1cccc(F)c1.O=C(OC1CN2CCC1CC2)N(Cc1cc(F)c(F)c(F)c1)c1cccc(F)c1` (racemic) [DL-Malic (0.5 eq)] as the compound, how does the “Aspect of the salt” value read?
Its value is “Hygroscopic red foam”.

Which “Aspect of the salt” value does the source give for `O=C(O)CC(O)C(=O)O.O=C(OC1CN2CCC1CC2)N(Cc1cc(F)c(F)c(F)c1)c1cccc(F)c1` [L-Malic] here?
Its value is “Oil”.

For `O=C(OC1CN2CCC1CC2)N(Cc1cc(F)c(F)c(F)c1)c1cccc(F)c1.O=C1OC(C(O)CO)C(O)=C1O` (stereo not drawn) [L(+)-Ascorbic], which “Aspect of the salt” value is on record?
Its value is “White foam”.

For `CC=CC=CC(=O)O.O=C(OC1CN2CCC1CC2)N(Cc1cc(F)c(F)c(F)c1)c1cccc(F)c1` (stereo not shown) [Sorbic], which “Aspect of the salt” value is on record?
Its value is “Oil”.

Which “Aspect of the salt” value does the source give for `O=C(O)CC(O)C(=O)O.O=C(OC1CN2CCC1CC2)N(Cc1cc(F)c(F)c(F)c1)c1cccc(F)c1` (racemic) [DL-Malic] here?
The value was “Hygroscopic red foam”.

For Citric, which “Aspect of the salt” value is on record?
The value was “Oil”.
